Biological target: T1, photosystem II D1 protein (PSBD1; psbA)
T1 construct: gene psbA1; psbA cloned BamHI/HindIII into pFastBac1; expressed in Sf9 insect cells; His-tagged (kept, captured on NTA sensor), Ni column from sonicated pellet supernatant; recombinant plasmid printed as 5238 bp, small for a full-length psbA insert; isolated D1 without other PSII subunits or cofactors; PDB 7ZCL is the docking model only
Assay: biolayer interferometry (Octet R8, NTA sensor)
Type: binding
Details: PBS, 5% DMSO; analyte 1 mM; His-tagged protein immobilised on NTA sensor; read-out: affinity constant

Q: For COC(=O)c1c([S+](C)[O-])[nH]c2ccccc12 (stereo not shown) [brassicanate A sulfoxide], which Kd is on record?
A: 2.69 mM

From PMC10889811, “Potential Candidate Molecule of Photosystem II Inhibitor Herbicide—Brassicanate A Sulfoxide” (International Journal of Molecular Sciences, 2024)
